Laboratory results published in article PMC6264390, “Design, Synthesis and Structure-activity Studies of Rhodanine Derivatives as HIV-1 Integrase Inhibitors” (Molecules, 2010).
Like-named read-outs stand apart in the source and are kept apart here.

How the values were obtained:
[1] = molecular target: T1, HIV-1 IN (Human immunodeficiency virus type 1 group M subtype B, UniProt P12497); test: In vitro IN inhibition assay (3’-processing and strand transfer); format: biochemical; conditions: for IC50: Mn2+ cofactor (7.5 mM MnCl2); for IN inhibition (in words): highest concentration tested 100 μM
T1 construct: pre-incubated with purified recombinant IN (at a final concentration of 200 nM); made in house
Description: (§1) All compounds were dissolved in DMSO to a final stock concentration of 10 mM and stored at −20 °C. Initial screening for IN inhibitory effect was done at 100 μM and dilutions were made in DMSO. Compounds showing at least 50% inhibition at 100 μM were selected for IC50 determinations. γ-[^32P]-ATP was purchased from Perkin Elmer (Waltham, MA, USA). The expression system for wild-type IN was a generous gift of Dr. Robert Craigie, Laboratory of Molecular Biology, NIDDK, NIH (Bethesda, MD, USA). His-tagged APE1 was purified from an expression system kindly provided by Dr. Tom Curran, Department of Developmental Neurobiology, St. Jude Children’s Research Hospital (Memphis, TN, USA).
(§2) 21-mer oligonucleotides used in IN inhibition assay [21top (5’-[…]-3’) and 21bot (5’-ACTGCTAGAGATTTTCCA CAC-3’)] were purchased from Integrated DNA Technologies (Coralville, IA, USA) and purified by UV shadowing on polyacrylamide gel. The oligonucleotides used in APE1 inhibition assay [top strand: 5′-ATTTCACCGGTACG(F)TCTAGAATC CG-3′ containing the tetrahydrofuran synthetic abasic residue (F), and bottom strand: 3′-TAAAGTGG CCATGC(C)AGATCTTAGGC-5′] were purchased from The Midland Certified Reagent Company (Midland, TX, USA). To analyze the extent of 3’-processing and strand transfer with 5’-end labeled substrates, 21top was 5’-end labeled using T4 polynucleotide kinase (Epicentre, Madison, WI, USA) and [γ-^32P]-ATP (Perkin Elmer, Waltham, MA, USA). The kinase was heat-inactivated at 95 °C and 21bot was added in […]. The reaction mixture was allowed to cool slowly to room temperature, and purified through a spin-25 minicolumn (USA Scientific, Ocala, FL, USA) to separate annealed double-stranded oligonucleotide from unincorporated material. The oligonucleotides used in the APE1 inhibition assay were labeled using a similar protocol.
To determine the extent of 3’-processing and strand transfer, the test compounds, diluted in DMSO, were pre-incubated with purified recombinant IN (at a final concentration of 200 nM) in the reaction buffer [50 mM NaCl, 1 mM HEPES (pH 7.5), 50 μM EDTA, 50 μM dithiothreitol, 10% glycerol (w/v), 7.5 mM MnCl2, 0.1 mg mL–1 bovine serum albumin, 10 mM 2-mercaptoethanol, 10% dimethyl sulfoxide, and 25 mM MOPS (pH 7.2)] at 30 °C for 30 min. For Mg^2+ assay, 7.5 mM MgCl2 was substituted for MnCl2 and an optimal concentration of PEG was included in the reaction buffer. Following the pre-incubation, 20 nM of the 5’-end ^32P-labeled linear oligonucleotide substrate was added to the reaction mixture and incubated for an additional 1 h. Reactions were quenched by addition of 50X loading dye (98% deionized formamide, 10 mM EDTA, 0.025% xylene cyanol, and 0.025 % bromophenol blue). An aliquot was subjected to electrophoresis on a denaturing polyacrylamide gel (0.09 M tris–borate, pH 8.3, 2 mM EDTA, 20% acrylamide, 8M urea). Gels were dried under vacuum, exposed in a PhosphorImager cassette and visualized with a Typhoon 8610 Variable Mode Imager (Amersham Biosciences). Quantification was done with Image Quant 5.2 software. Percent inhibition (%I) was calculated using the following equation: %I = 100 × [1 − (D − C) / (N − C)] where C, N, and D are the fractions of 21-mer substrate converted into 19-mer (product of 3’-processing) or strand-transfer products for DNA alone, DNA plus IN, and DNA, IN plus test compound, respectively. IC50 values were determined by plotting the logarithm of test compound concentrations as a function of %I to obtain the concentration that produced 50% inhibition.

[2] = molecular target: T2, human apurinic/apyrimidinic endonuclease 1 (APE1) (Homo sapiens, UniProt P27695); test: APE1 inhibition assay; format: biochemical; conditions: read-out: Inhibition of APE1 catalytic activity IC50
T2 construct: His; made in house
T2 sequence (P27695 whole entry): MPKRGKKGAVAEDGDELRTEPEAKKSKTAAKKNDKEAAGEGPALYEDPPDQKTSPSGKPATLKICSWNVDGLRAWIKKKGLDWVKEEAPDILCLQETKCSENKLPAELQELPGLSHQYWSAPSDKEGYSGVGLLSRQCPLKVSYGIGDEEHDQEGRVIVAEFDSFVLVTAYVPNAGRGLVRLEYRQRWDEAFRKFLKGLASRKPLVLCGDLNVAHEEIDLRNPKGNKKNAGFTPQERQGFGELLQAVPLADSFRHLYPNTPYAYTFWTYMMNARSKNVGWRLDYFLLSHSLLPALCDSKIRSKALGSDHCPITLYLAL
Description: as §1, §2
APE1 inhibition assay was performed as previously described. To determine the extent of endonucleolytic cleavage of the abasic residue, the test compounds, diluted in DMSO, were preincubated with recombinant APE1 at a final concentration of 0.05 nM in the reaction buffer [50 mM NaCl, 1 mM HEPES, pH 7.5, 50 μM EDTA, 50 μM dithiothreitol, 10% glycerol (w/v), 7.5 mM MnCl2, 0.1 mg mL‑1 bovine serum albumin, 10 mM 2-mercaptoethanol, 10% DMSO, and 25 mM MOPS, pH 7.2] at 30 °C for 10 min. Following preincubation, 200 nM of the 5′-end ^32P-labeled linear oligonucleotide substrate was added, and incubated for an additional 10 minutes. Reactions were quenched by the addition of an equal volume (16 μL) of loading dye (98% deionized formamide, 10 mM EDTA, 0.025% xylene cyanol, and 0.025% bromophenol blue). An aliquot (5 μL) was electrophoresed on a denaturing 20% polyacrylamide gel (0.09 M tris-borate pH 8.3, 2 mM EDTA, 20% acrylamide, 8 M urea). The gels were dried, exposed in a PhosphorImager cassette and analyzed using a Typhoon 8610 Variable Mode Imager (Amersham Biosciences). Quantification of enzyme inhibition was done using Image Quant 5.2 software. The percent inhibition (% I) was calculated using the following equation: %I = 100 × [1 − (D − C) / (N − C)] where C, N, and D are the fractions of 26-mer substrate converted to 13-mer incision products (or integration products) for DNA alone, DNA plus APE1, and DNA, APE1 plus test compound, respectively. IC50 values were determined by plotting the logarithm of compound concentration as a function of %I to obtain the concentration that produced 50% inhibition. An optimum concentration of APE1 enzyme, at which there is complete conversion of the synthetic abasic-site containing oligonucleotide substrate to its cleaved product without subsequent exonuclease activity, was used in the assay.

[3] = read-out: Inhibition of IN catalytic activity IC50, 3’-Processing
[4] = read-out: Inhibition of IN catalytic activity IC50, Strand Transfer

Molecule | IC50 [1, 3] [µM] | IC50 [1, 4] [µM] | melting point [°C] | IC50 [2] [µM] | IN inhibition (in words) [1]
O=C(Nc1ccc(O)cc1)C(=S)NN1C(=O)C(=Cc2cc(Cl)cc(Cl)c2O)SC1=S [Compound 50, 2-{[5-(3,5-Dichloro-2-hydroxybenzylidene)-4-oxo-2-thioxo-1,3-thiazolidin-3-yl]amino}-N-(4-hydroxy-phenyl)-2-thioxoacetamide] | 60 | 55 | 217 to 218 | > 100 | –
COc1cc(NC(=O)C(=S)NN2C(=O)/C(=C\c3ccc(O)c(C(=O)O)c3)SC2=S)cc(OC)c1OC [Compound 35] | 45 ± 24 | 61 ± 11 | 239 to 240 | > 100 | only a moderate effect
C=CCc1cccc(C=C2SC(=S)N(NC(=S)C(=O)Nc3cc(OC)c(OC)c(OC)c3)C2=O)c1O [Compound 32, 2-{[5-(3-Allyl-2-hydroxybenzylidene)-4-oxo-2-thioxo-1,3-thiazolidin-3-yl]amino}-2-thioxo-N-(3,4,5-trimethoxyphenyl)acetamide] | 82 ± 5 | 83 ± 3 | 174 to 175 | > 100 | –
O=C(Nc1ccc(O)cc1)C(=S)NN1C(=O)C(=Cc2cc(Cl)ccc2O)SC1=S [Compound 41, 2-{[5-(5-Chloro-2-hydroxybenzylidene)-4-oxo-2-thioxo-1,3-thiazolidin-3-yl]amino}-N-(4-hydroxy-phenyl)-2-thioxoacetamide] | > 100 | 67 | 220 to 221 | > 100 | –
CCN(CC)c1ccc(C=C2SC(=S)N(NC(=S)C(=O)Nc3ccc(O)cc3)C2=O)c(O)c1 [Compound 47, 2-({5-[4-(Diethylamino)-2-hydroxybenzylidene]-4-oxo-2-thioxo-1,3-thiazolidin-3-yl}amino)-N-(4-hydroxyphenyl)-2-thioxoacetamide] | > 100 | > 100 | 206 to 207 | > 100 | –
O=C(Nc1cc(C(F)(F)F)cc(C(F)(F)F)c1)C(=S)NN1C(=O)C(=Cc2ccc([N+](=O)[O-])o2)SC1=S [Compound 16, N-[3,5-bis(trifluoromethyl)phenyl]-2-{5-[(5-nitro-2-furyl)methylene]-4-oxo-2-thioxo-1,3-thiazolidin-3-yl}amino-2-thioxoacetamide] | > 100 | 74 ± 20 | 195 to 196 | > 100 | –
COc1ccc(NC(=O)C(=S)NN2C(=O)C(=Cc3ccc([N+](=O)[O-])o3)SC2=S)cc1OC [Compound 18, N-(3,4-dimethoxyphenyl)-2-{5-[(5-nitro-2-furyl)methylene]-4-oxo-2-thioxo-1,3-thiazolidin-3-yl}amino-2-thioxoacetamide] | 34 ± 10 | 14 ± 5 | 156 to 157 | > 100 | –
CCOc1cccc(C=C2SC(=S)N(NC(=S)C(=O)Nc3ccc(O)cc3)C2=O)c1O [Compound 45, 2-{[5-(3-Ethoxy-2-hydroxybenzylidene)-4-oxo-2-thioxo-1,3-thiazolidin-3-yl]amino}-N-(4-hydroxyphenyl)-2-thioxoacetamide] | > 100 | > 100 | 184 to 185 | > 100 | –
COc1cc(Br)cc(C=C2SC(=S)N(NC(=S)C(=O)Nc3ccc(O)cc3)C2=O)c1O [Compound 52, 2-{[5-(5-Bromo-2-hydroxy-3-methoxybenzylidene)-4-oxo-2-thioxo-1,3-thiazolidin-3-yl]amino}-N-(4-hydroxyphenyl)-2-thioxoacetamide] | 38 ± 27 | 23 ± 9 | 176 to 177 | > 100 | –
2-{[5-(2-Hydroxy-3,5-diisopropylbenzylidene)-4-oxo-2-thioxo-1,3-thiazolidin-3-yl]amino}-N-(3,4,5-trimethoxyphenyl)-2-thioxoacetamide [Compound 40] | > 100 | 95 | – | > 100 | –
COc1cc(/C=C2/SC(=S)N(NC(=S)C(=O)Nc3cc(C(F)(F)F)cc(C(F)(F)F)c3)C2=O)cc(OC)c1OC [Compound 26, N-[3,5-bis(trifluoromethyl)phenyl]-2-{[4-oxo-2-thioxo-5-(3,4,5-trimethoxybenzylidene)-1,3-thiazol-idin-3-yl]amino}-2-thioxoacetamide] | > 100 | > 100 | 187 to 188 | – | –
2-{[5-(5-Bromo-2-hydroxy-3-methoxybenzylidene)-4-oxo-2-thioxo-1,3-thiazolidin-3-yl]amino}-N-(3,4,5-trimethoxyphenyl)acetamide [Compound 38] | 51 ± 25 | 32 ± 11 | – | 65 ± 33 | –
2-{[5-(2-Hydroxy-3,5-diisopropylbenzylidene)-4-oxo-2-thioxo-1,3-thiazolidin-3-yl]amino}-N-(4-hydroxyphenyl)-2-thioxoacetamide [Compound 54] | > 100 | > 100 | – | > 100 | loss of activity
O=C(Nc1ccc(Cl)cc1)C(=S)NN1C(=O)C(=Cc2ccc(Cl)cc2)SC1=S [Compound 7, 2-{[5-(4-Chlorobenzylidene)-4-oxo-2-thioxo-1,3-thiazolidin-3-yl]amino}-N-(4-chlorophenyl)-2-thioxo-acetamide] | > 100 | > 100 | 211 to 212 | – | lacked any IN inhibitory activity
O=C(Nc1cccc(C(F)(F)F)c1)C(=S)NN1C(=O)C(=Cc2ccc([N+](=O)[O-])o2)SC1=S [Compound 15, 2-{5-[(5-Nitro-2-furyl)methylene]-4-oxo-2-thioxo-1,3-thiazolidin-3-yl}amino-2-thioxo-N-[3-(trifluoro-methyl)phenyl]acetamide] | 61 ± 35 | 56 ± 11 | 163 to 164 | – | –
